The record followed here is ChEMBL document CHEMBL1129129, “Modelisation, synthesis and antiviral evaluation of new 2,3-disubstituted thiazolidinone nucleoside analogues” (Bioorg Med Chem Lett, 1996).

As usually defined, the pIC50 is the negative decadic logarithm of the IC50, by convention in mol/L. Usually CC50 stands for the concentration at which the toxic effect on the cells reaches its halfway point. A higher CC50 goes with lower toxicity to the cells.

pIC50: −log10 of the molar value.

The subject of assay [1] is MT4. The assay can be described thus: Compound was tested to inhibit HIV-1 replication in MT-4 cell lines; value may range from 1 - 10. The class given is functional, cell-based. To be noted: Homo sapiens.
Assay [2] relates to Anas sp. The assay can be described thus: Compound was tested for its cytotoxicity against duck hepatitis B virus in duck fetal hepatocytes culture. The assay is classed as functional. To be noted: Hepatocyte.
The subject of assay [3] is Anas sp. The assay can be described thus: Compound was tested for its antiviral activity against hepatitis B virus(DHBV) in duck fetal hepatocytes culture. To be noted: Hepatocyte. The assay is classed as functional, organism-based.
Assay [4] concerns MT4. The assay can be described thus: Compound was tested for its cytotoxicity against HIV-1 infected MT-4 cell lines. To be noted: Homo sapiens. The assay is classed as functional.
Assay [5] relates to MT4. The assay can be described thus: Compound was tested to inhibit HIV-1 replication in MT-4 cell lines. To be noted: Homo sapiens. The class given is functional, cell-based.
The test system of assay [6] is MT4. The assay can be described thus: Compound was tested to inhibit HIV-1 replication in MT-4 cell lines; value may range from 5 - 15. The class given is functional, cell-based. To be noted: Homo sapiens.

Take `Nc1nc(=O)n(CCN2C(=O)CSC2CO)cc1F` (stereo not drawn): the pIC50 in assay [1] is 5.00; in assay [3] it was 5.70. Further, the CC50 stood at 150 µM in assay [2] and 100 µM in assay [4].

In turn, `Nc1ccn(CCN2C(=O)CSC2COC(=O)c2ccccc2)c(=O)n1` (stereo not drawn) showed a negative logarithm of the IC50 (pIC50) in assay [5] of no more than 4.00. In addition, in assay [4], the CC50 is roughly 100 µM.

With `Nc1ccn(CCN2C(=O)CSC2CO)c(=O)n1` (stereo not drawn), the CC50 is 100 µM in assay [2] and roughly 300 µM in assay [4]. For the same compound, the pIC50 in assay [3] was 5.70; in assay [5], no more than 3.52.

For `Cc1cn(CCN2C(=O)CSC2CO)c(=O)[nH]c1=O` (stereo not drawn), the CC50 was no less than 200 µM in assay [2] and 100 µM in assay [4]. The pIC50 in assay [3] is 5.70; in assay [6] it was 4.82.

In assay [1], `Nc1nc(=O)n(CCN2C(=O)CSC2COC(=O)c2ccccc2)cc1F` (stereo not drawn) showed a pIC50 of 5.00. In assay [4], the midpoint of cytotoxicity, the CC50, lay at 100 µM.

Turning to `Nc1ncnc2c1ncn2CCN1C(=O)CSC1CO` (stereo not drawn), the pIC50 in assay [1] is 5.00; in assay [3] it was 5.70. Moreover, the CC50 in assay [2] is 200 µM; in assay [4], 100 µM.

For `Nc1ccn(C2CS[C@H](CO)O2)c(=O)n1` (single isomer, unassigned) [LAMIVUDINE], the CC50 in assay [2] is greater than 400 µM; in assay [4] it was 100 µM. The compound further showed a pIC50 in assay [3] of 7.00.
